Reference: patent US11691992B2 (Anacor Pharmaceuticals, Inc., priority 2017, dated 2023)

Legend:
[1] = test system: promastigote forms of L. major; assay: Leishmania major promastigote growth inhibition assay (Alamar Blue); assay type: cell-based; settings: promastigotes, 44 hours + 4 hours Alamar Blue, read-out: IC50: I Org. promastigote Growth L. major, 2 d
Text: Example 108. Leishmania major Promastigote Growth Inhibition Assay
The promastigote assay is a microtiter plate drug sensitivity prescreen assay used to determine antileishmanial activity of candidate drugs against promastigote forms of L. major. (Shadow et al., PLOS Neglected Tropical Diseases, 2009, e311.) Alamar Blue, or resazurin, is a non-fluorescent indicator dye that is converted to bright red-fluorescent resorufin via the activity of mitochondrial reductases. As the activity of mitochondrial reductases is reduced in cells that are dead or dying, and the intensity of the fluorescence is relative to cell number, a test compound that kills or inhibits growth of a particular target cell, such as L. major, will result in a lower production of fluorescent signal. Pre-dosed microtiter drug plates for use in the promastigote drug prescreen assay were produced using sterile 384-well black optical bottom tissue culture plates (Nunc Cat #12-565-344). Candidate drugs were diluted in dimethyl sulfoxide in four 96-well plates to either 10,000 ng/ml or 1,000 ng/ml, and 4.25 μL of diluted drug was subsequently dispensed into each well of a 384-well plate. Duplicate 384 well plates were made at each test concentration (10,000 ng/mL and 1,000 ng/mL) and amphotericin B was used as a batch control. The Tecan EVO Freedom liquid handling system (Tecan US, Inc., Durham, N.C.) was used to produce all drug assay plates and conduct all pipetting operations for this assay. L. major parasites were cultured in Schneider's medium (Lonza Cat #04-351Q) supplemented with 20% heat inactivated FBS (Invitrogen Cat #16140-089). Promastigotes in early log growth phase were harvested from culture, counted, suspended at 1.32×10^5 cells/mF and 5,000 promastigotes were dispensed into each well of the 384 well plate in a volume of 38.8 μL. The 384 well plates were subsequently incubated at 28° C. for 44 hours. 8.4 μF of Alamar Blue (Promega, Cat #G8081) was added to each well, the plates were subsequently incubated at 28° C. and 5% CO2 for 4 hours and then examined for the relative fluorescence units (RFU) per well using the Tecan Genios Plus (Tecan US, Inc., Durham, N.C.) with excitation set at 560 nm and emission set at 590 nm. The relative fluorescence from each well was used to determine the percent growth inhibition of each candidate compound tested. Compounds with 50% or greater inhibition of growth were selected for further analysis to determine IC50 values.

[2] = test system: bloodstream forms of T. b. rhodesiense STIB 900; assay: T. brucei rhodesiense STIB 900 growth inhibition assay; assay type: cell-based; settings: Trypanosoma brucei; bloodstream forms, 72 h, Alamar Blue; protocol of Example 110; read-out: IC50: I Org. Growth T. brucei rhodesiense STIB 900, 3 d
Summary of the method: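 Bloodstream-form STIB 900 (10^4/well) were cultured in supplemented MEM with 15% horse serum and compound (90 to 0.123 μg/ml, 3-fold steps) for 72 h at 37 °C, 5% CO2. Viability was read by Alamar Blue fluorescence (ex 536/em 588 nm) after a further 2-4 h.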

Compound | IC50 [1] [nM] | IC50 [2] [nM]
O=C(Nc1ccc2c(c1)B(O)OC21CCC1)c1cn(-c2cccnc2)nn1 [Example 8, N-(1-hydroxy-1H-spiro[benzo[c][1,2]oxaborole-3,1′-cyclobutan]-6-yl)-1-(pyridin-3-yl)-1H-1,2,3-triazole-4-carboxamide] | 2510 to 20000 | 
O=C(Nc1ccc2c(c1)B(O)OC2)c1nnn(-c2cccc(F)c2)c1C(F)(F)F [Example 69, 1-(3-Fluorophenyl)-N-(1-hydroxy-1,3-dihydrobenzo[c][1,2]oxaborol-6-yl)-5-(trifluoromethyl)-1H-1,2,3-triazole-4-carboxamide] |  | 100 to 300
Cc1ccc(-n2nnc(C(=O)Nc3ccc4c(c3)B(O)OC4C)c2C)cc1 (stereo not shown) [Example 13, N-(1-hydroxy-3-methyl-1,3-dihydrobenzo[c][1,2]oxaborol-6-yl)-5-methyl-1-(p-tolyl)-1H-1,2,3-triazole-4-carboxamide] | 600 to 2500 | 
Cc1c(C(=O)Nc2ccc3c(c2)B(O)OC32CCC2)nnn1-c1cccnc1 [Example 17, N-(1-hydroxy-1H-spiro[benzo[c][1,2]oxaborole-3,1′-cyclobutan]-6-yl)-5-methyl-1-(pyridin-3-yl)-1H-1,2,3-triazole-4-carboxamide] | 2510 to 20000 | 
Cc1c(C(=O)Nc2ccc3c(c2)B(O)OC32CCC2)nnn1-c1ccccc1 [Example 4, N-(1-hydroxy-1H-spiro[benzo[c][1,2]oxaborole-3,1′-cyclobutan]-6-yl)-5-methyl-1-phenyl-1H-1,2,3-triazole-4-carboxamide] | 600 to 2500 | 
CC1OB(O)c2cc(NC(=O)c3cn(-c4cccnc4)nn3)ccc21 (stereo not shown) [Example 12, N-(1-hydroxy-3-methyl-1,3-dihydrobenzo[c][1,2]oxaborol-6-yl)-1-(pyridin-3-yl)-1H-1,2,3-triazole-4-carboxamide] | 2510 to 20000 | 
Cc1ccc(-n2cc(C(=O)Nc3ccc4c(c3)B(O)OC4)nn2)cc1 [Example 10, N-(1-hydroxy-1,3-dihydrobenzo[c][1,2]oxaborol-6-yl)-1-(p-tolyl)-1H-1,2,3-triazole-4-carboxamide] | < 600 | 
COc1ccc(-n2nnc(C(=O)Nc3ccc4c(c3)B(O)OC4C)c2C)cc1 (stereo not shown) [Example 19, N-(1-hydroxy-3-methyl-1,3-dihydrobenzo[c][1,2]oxaborol-6-yl)-1-(4-methoxyphenyl)-5-methyl-1H-1,2,3-triazole-4-carboxamide] | 600 to 2500 | 
COc1ccc(-n2cc(C(=O)Nc3ccc4c(c3)B(O)OC43CCC3)nn2)cc1 [Example 25, N-(1-hydroxy-1H-spiro[benzo[c][1,2]oxaborole-3,1′-cyclobutan]-6-yl)-1-(4-methoxyphenyl)-1H-1,2,3-triazole-4-carboxamide] | 2510 to 20000 | 
COc1ccc(-n2nnc(C(=O)Nc3ccc4c(c3)B(O)OC43CCC3)c2C)cc1 [Example 20, N-(1-hydroxy-1H-spiro[benzo[c][1,2]oxaborole-3,1′-cyclobutan]-6-yl)-1-(4-methoxyphenyl)-5-methyl-1H-1,2,3-triazole-4-carboxamide] | < 600 | 
Cc1ccc(-n2nnc(C(=O)Nc3ccc4c(c3)B(O)OC4)c2C)cc1 [Example 11, N-(1-hydroxy-1,3-dihydrobenzo[c][1,2]oxaborol-6-yl)-5-methyl-1-(p-tolyl)-1H-1,2,3-triazole-4-carboxamide] | < 600 | 
Cc1c(C(=O)Nc2ccc3c(c2)B(O)OC3C)nnn1-c1cccnc1 (stereo not shown) [Example 14] | 2510 to 20000 | 
Cc1ccc(-n2cc(C(=O)Nc3ccc4c(c3)B(O)OC43CCC3)nn2)cc1 [Example 15] | 2510 to 20000 | 
O=C(Nc1ccc2c(c1)B(O)OC2)c1nnn(-c2ccc(F)cc2)c1C(F)(F)F [Example 70, 1-(4-Fluorophenyl)-N-(1-hydroxy-1,3-dihydrobenzo[c][1,2]oxaborol-6-yl)-5-(trifluoromethyl)-1H-1,2,3-triazole-4-carboxamide] |  | 310 to 10000
Cc1c(C(=O)Nc2ccc3c(c2)B(O)OC3C)nnn1-c1ccccn1 (stereo not shown) [Example 24, N-(1-hydroxy-3-methyl-1,3-dihydrobenzo[c][1,2]oxaborol-6-yl)-5-methyl-1-(pyridin-2-yl)-1H-1,2,3-triazole-4-carboxamide] | 600 to 2500 | 
Cc1ccc(-n2cc(C(=O)Nc3ccc4c(c3)B(O)OC4C)nn2)cc1 (stereo not shown) [Example 18, N-(1-hydroxy-3-methyl-1,3-dihydrobenzo[c][1,2]oxaborol-6-yl)-1-(p-tolyl)-1H-1,2,3-triazole-4-carboxamide] | 600 to 2500 | 
O=C(Nc1ccc2c(c1)B(O)OC21CCC1)c1cn(-c2ccccn2)nn1 [Example 26, N-(1-hydroxy-1H-spiro[benzo[c][1,2]oxaborole-3,1′-cyclobutan]-6-yl)-1-(pyridin-2-yl)-1H-1,2,3-triazole-4-carboxamide] | 2510 to 20000 | 
CC1OB(O)c2cc(NC(=O)c3cn(-c4ccccn4)nn3)ccc21 (stereo not shown) [Example 23, N-(1-hydroxy-3-methyl-1,3-dihydrobenzo[c][1,2]oxaborol-6-yl)-1-(pyridin-2-yl)-1H-1,2,3-triazole-4-carboxamide] | < 600 | 
CC1OB(O)c2cc(NC(=O)c3cn(-c4ccccc4)nn3)ccc21 (stereo not shown) [Example 2] | < 600 | 
Cc1c(C(=O)Nc2ccc3c(c2)B(O)OC3C)nnn1-c1ccc(F)cc1 (stereo not shown) [Example 6, 1-(4-fluorophenyl)-N-(1-hydroxy-3-methyl-1,3-dihydrobenzo[c][1,2]oxaborol-6-yl)-5-methyl-1H-1,2,3-triazole-4-carboxamide] | 600 to 2500 | 
O=C(Nc1ccc2c(c1)B(O)OC2)c1nnn(-c2ccccc2F)c1C(F)(F)F [Example 67, 1-(2-Fluorophenyl)-N-(1-hydroxy-1,3-dihydrobenzo[c][1,2]oxaborol-6-yl)-5-(trifluoromethyl)-1H-1,2,3-triazole-4-carboxamide] |  | 100 to 300
Cc1c(C(=O)Nc2ccc3c(c2)B(O)OC32CCC2)nnn1-c1ccc(F)cc1 [Example 9, 1-(4-fluorophenyl)-N-(1-hydroxy-1H-spiro[benzo[c][1,2]oxaborole-3,1′-cyclobutan]-6-yl)-5-methyl-1H-1,2,3-triazole-4-carboxamide] | 600 to 2500 | 
COc1ccc(-n2cc(C(=O)Nc3ccc4c(c3)B(O)OC4C)nn2)cc1 (stereo not shown) [Example 22, N-(1-hydroxy-3-methyl-1,3-dihydrobenzo[c][1,2]oxaborol-6-yl)-1-(4-methoxyphenyl)-1H-1,2,3-triazole-4-carboxamide] | < 600 | 
COc1ccc(-n2cc(C(=O)Nc3ccc4c(c3)B(O)OC4)nn2)cc1 [Example 21, N-(1-hydroxy-1,3-dihydrobenzo[c][1,2]oxaborol-6-yl)-1-(4-methoxyphenyl)-1H-1,2,3-triazole-4-carboxamide] | < 600 | 
O=C(Nc1ccc2c(c1)B(O)OC21CCC1)c1cn(-c2ccc(F)cc2)nn1 [Example 7, 1-(4-fluorophenyl)-N-(1-hydroxy-1H-spiro[benzo[c][1,2]oxaborole-3,1′-cyclobutan]-6-yl)-1H-1,2,3-triazole-4-carboxamide] | 2510 to 20000 | 
Cc1c(C(=O)Nc2ccc3c(c2)B(O)OC3)nnn1-c1cccnc1 [Example 93, N-(1-hydroxy-1,3-dihydrobenzo[c][1,2]oxaborol-6-yl)-5-methyl-1-(pyridin-3-yl)-1H-1,2,3-triazole-4-carboxamide] | 2510 to 20000 | 310 to 10000
O=C(Nc1ccc2c(c1)B(O)OC2)c1nnn(-c2cccnc2)c1C(F)(F)F [Example 71, N-(1-hydroxy-1,3-dihydrobenzo[c][1,2]oxaborol-6-yl)-1-(pyridin-3-yl)-5-(trifluoromethyl)-1H-1,2,3-triazole-4-carboxamide] |  | 100 to 300
CC1OB(O)c2cc(NC(=O)c3cn(-c4ccc(F)cc4)nn3)ccc21 (stereo not shown) [Example 5] | 600 to 2500 | 
O=C(Nc1ccc2c(c1)B(O)OC21CCC1)c1cn(-c2ccccc2)nn1 [Example 3, N-(1-hydroxy-1H-spiro[benzo[c][1,2]oxaborole-3,1′-cyclobutan]-6-yl)-1-phenyl-1H-1,2,3-triazole-4-carboxamide] | 600 to 2500 | 
Cc1ccc(-n2nnc(C(=O)Nc3ccc4c(c3)B(O)OC43CCC3)c2C)cc1 [Example 16, N-(1-hydroxy-1H-spiro[benzo[c][1,2]oxaborole-3,1′-cyclobutan]-6-yl)-5-methyl-1-(p-tolyl)-1H-1,2,3-triazole-4-carboxamide] | 600 to 2500 | 
